Source: article PMC5059851, “Inhibition of Hedgehog-dependent tumors and cancer stem cells by a newly identified naturally occurring chemotype” (Cell Death & Disease, 2016)
“Also recorded” adds a separate entry of the source.

How the values were obtained:
[1] = system: WNT/β-Catenin pathway; assay: WNT/β-Catenin luciferase reporter assay (Top Flash-luciferase and β-Catenin) in MEFs WT; format: cell-based, mouse; details: increasing concentrations, 24 h
Experimental: Figure 2 Compound 12 inhibits Hh signaling without affecting AP1/Jun and WNT/β-Catenin pathways. (a) The graphs show the Hh target genes expression levels in Ptch1^−/− MEFs treated for 48 h with 12 or DMSO as control. mRNA levels were determined by quantitative real-time PCR (qRT-PCR) normalized to endogenous control (β2-microglobulin and HPRT). Pfkfb3 gene was used as negative control. *P<0.05 versus CTR. (b and c) AP1/Jun and WNT/β-Catenin pathways activity were assayed in MEFs WT transfected with MMP1-luciferase reporter and c-Jun (b) or Top Flash-luciferase reporter and β-Catenin (c), respectively, in the presence or absence of increasing concentrations of compound 12. Treatment time was 24 h, and normalization was against Renilla luciferase.

[2] = system: Hh target genes and growth markers in GCPs; assay: qRT-PCR of Hh and proliferation targets in SAG-treated GCPs; format: cell-based, mouse; details: SAG + compound at 5 and 10 μM, 48 h
Text: Hh signaling is a critical regulator of cerebellum development controlling the proliferation of granule cell progenitors (GCPs) under Purkinje cell-derived Shh stimuli. Withdrawal of Hh signal, occurring physiologically after the first post-natal week in mice,[54] causes cell growth arrest and induces their differentiation into mature granules.[55] Importantly, genetic and epigenetic alterations in the Hh pathway are responsible for the lack of GCPs proliferation arrest, leading to the tumorigenic conversion of these progenitors, considered as the cell of origin of MB.[56], [57] To investigate the biological effects of 12, we first tested its ability to suppress Hh-dependent growth in 4-day-old mouse cerebellar progenitors.
Figure 4 Compound 12 inhibition of Hh-dependent growth of cerebellum granule cell progenitors. (a and b) BrdU assay in cerebellar granule cell progenitors (GCPs). GCPs isolated from 4-day-old mice were treated with SAG alone or in combination with compound 12 at 5 and 10 μM concentrations for 48 h. (a) Inhibition of cell proliferation was measured as percentage of BrdU incorporation in comparison with SAG-treated sample. […] (c) qRT-PCR analysis show Hh and proliferation targets mRNA expression levels determined in GCPs culture derived from 4-day-old mouse cerebella treated with SAG alone or in combination with compound 12 at 5 and 10 μM concentrations for 48 h. […]

[3] = system: murine Ptch1^+/− MB stem-like cells; assay: MB stem cells neurosphere-forming assay; format: cell-based, mouse; details: 7 days of treatment, increasing concentrations
Experimental: Figure 5 Compound 12 inhibition of Hh-dependent MB tumor cell growth. […] (a and b) After the indicated times, a trypan blue count was performed to determine the growth rate of viable cells. (c) Gli1 mRNA expression levels were determined by qRT-PCR normalized to endogenous control (β2-microglobulin and HPRT). (d–f) Compound 12 inhibits MB-SCs self-renewal. (d) Suspension of single MB-SCs isolated from Ptch1^+/− mice were cultured in stem cell medium to allow the formation of primary neurospheres. Primary neurospheres were dissociated and treated with increasing concentrations of compound 12, Cyclopamine or DMSO only. After 7 days of treatment, the number of secondary neurospheres derived from a known number of single cells was counted. The self-renewal MB-SCs' capability is expressed as percentage of neurosphere-forming cells. (e) Representative bright-field images of tumor neurospheres after compound 12 or Cyclopamine treatment are also shown. (f) MB-SCs isolated from Ptch1^+/− mice MBs were treated for 48 h with compound 12 or DMSO only. qRT-PCR analysis show Hh, proliferation and stemness target mRNA. For qRT-PCR, results were normalized to endogenous control (β2-microglobulin and HPRT). […]
Cell proliferation was evaluated by BrdU detection (Roche, Welwyn Garden City, UK). […] At least 500 nuclei were counted in triplicate, and the number of BrdU-positive nuclei was recorded. […]

[4] = system: ASZ001 BCC cells; assay: Trypan blue growth count of ASZ001 BCC cells; format: cell-based, mouse; details: compared with Cyclopamine, Vismodegib and LDE-225
Experimental: After the indicated times, a trypan blue count was performed to determine the growth rate.
Cell proliferation was evaluated by BrdU detection (Roche, Welwyn Garden City, UK). Briefly, after the BrdU pulse (24 h for GCPs) cells were fixed with 4% paraformaldehyde and permeabilized with 0.2% Triton X-100, and BrdU detection was performed according to the manufacturer's instructions. Nuclei were counterstained with Hoechst reagent. At least 500 nuclei were counted in triplicate, and the number of BrdU-positive nuclei was recorded. To determine the growth rate of viable cells, a trypan blue count was performed after a treatment period of 24–48–72 h with studied compound.

[5] = system: ASZ001 BCC allografts; assay: ASZ001 BCC allograft in NOD/SCID mice; format: in vivo, mouse; details: 50 mg/kg s.c. every second day, versus vehicle

SMILES: COc1ccc(C=CC(=O)c2cc(OC)c(OC)cc2OC)cc1OC [Compound 12, 3-(3,4-dimethoxy-phenyl)-1-(2,4,5-trimethoxy-phenyl)-2-propen-1-one]
- luciferase activity driven by Wnt/β-catenin signaling [1]: without affecting luciferase activity; also recorded: inactive
- mRNA levels of Hh target genes and cell growth markers (Gli1, Gli2, Ptch1, Pcna, cyclin D2) [2]: reduced mRNA levels
- clonogenic self-renewal ability (neurosphere formation) [3]: suppressed
- ASZ001 BCC cell growth in vitro [4]: significant efficacy to impair ASZ001 BCC cell growth
- tumor cell growth (tumor volume) in BCC allograft ([5]; 18 days): reduction of tumor cell growth
- percentage of Ki67 labeling in allograft tumors [5]: decreased percentage of Ki67 labeling
